From ChEMBL document CHEMBL1151945 (J Med Chem, 2009)

Experiments:
[1] = target: T1, Dihydrofolate reductase (Escherichia coli) (UniProt P0ABQ4); assay: Inhibition of Escherichia coli dihydrofolate reductase at 31 uM
T1 sequence (whole entry): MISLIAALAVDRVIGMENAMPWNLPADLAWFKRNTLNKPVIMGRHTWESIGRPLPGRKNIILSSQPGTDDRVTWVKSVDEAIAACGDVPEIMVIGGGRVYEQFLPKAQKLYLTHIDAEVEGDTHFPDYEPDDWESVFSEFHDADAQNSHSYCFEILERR

Thymidylate synthase [2] = target: Thymidylate synthase (Homo sapiens, UniProt P04818)
Thymidylate synthase [3] = target: Thymidylate synthase (Escherichia coli, UniProt C3SWJ7)
Thymidylate synthase (Escherichia coli, UniProt C3SWJ7), sequence (C3SWJ7 whole entry): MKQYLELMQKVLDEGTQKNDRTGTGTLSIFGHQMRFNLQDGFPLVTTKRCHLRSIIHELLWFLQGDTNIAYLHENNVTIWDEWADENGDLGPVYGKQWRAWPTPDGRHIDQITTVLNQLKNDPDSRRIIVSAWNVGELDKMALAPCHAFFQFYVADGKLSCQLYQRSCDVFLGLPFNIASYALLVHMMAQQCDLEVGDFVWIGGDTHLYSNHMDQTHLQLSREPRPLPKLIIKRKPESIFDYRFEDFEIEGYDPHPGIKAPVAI

[4] = target: T2, Bifunctional dihydrofolate reductase-thymidylate synthase (Toxoplasma gondii, UniProt Q07422)
T2 sequence (Q07422 whole entry): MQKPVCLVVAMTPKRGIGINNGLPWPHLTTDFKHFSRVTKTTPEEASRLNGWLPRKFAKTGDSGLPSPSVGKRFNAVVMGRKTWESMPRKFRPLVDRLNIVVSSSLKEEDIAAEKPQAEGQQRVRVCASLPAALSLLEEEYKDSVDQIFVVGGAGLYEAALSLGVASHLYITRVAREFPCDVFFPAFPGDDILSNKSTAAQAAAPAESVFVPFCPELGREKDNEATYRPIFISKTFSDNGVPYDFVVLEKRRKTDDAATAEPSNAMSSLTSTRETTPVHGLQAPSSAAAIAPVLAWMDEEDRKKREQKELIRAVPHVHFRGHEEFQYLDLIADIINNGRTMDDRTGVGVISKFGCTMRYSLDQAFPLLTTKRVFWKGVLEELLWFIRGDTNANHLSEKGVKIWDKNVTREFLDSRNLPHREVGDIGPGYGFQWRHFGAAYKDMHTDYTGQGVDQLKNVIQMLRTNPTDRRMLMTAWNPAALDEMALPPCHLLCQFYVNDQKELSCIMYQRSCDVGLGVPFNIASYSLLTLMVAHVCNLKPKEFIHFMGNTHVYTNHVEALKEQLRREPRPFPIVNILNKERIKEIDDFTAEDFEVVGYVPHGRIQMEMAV

Dihydrofolate reductase = target: T3, Dihydrofolate reductase (Homo sapiens, UniProt P00374)
T3 sequence (P00374 whole entry): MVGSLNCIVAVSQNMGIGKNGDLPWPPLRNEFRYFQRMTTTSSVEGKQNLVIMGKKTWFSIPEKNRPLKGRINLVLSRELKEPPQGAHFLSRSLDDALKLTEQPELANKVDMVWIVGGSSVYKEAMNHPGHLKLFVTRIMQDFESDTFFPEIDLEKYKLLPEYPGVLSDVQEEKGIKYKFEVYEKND

[5] = target: T2, Bifunctional dihydrofolate reductase-thymidylate synthase; remark: listed apart in the source
CCRF-CEM = assay: cells; conditions: Homo sapiens
HL-60(TB) = assay: cells; conditions: Homo sapiens
MOLT-4 = assay: cells; conditions: Homo sapiens
NCI-H460 = assay: cells; conditions: Homo sapiens
cells [6] = conditions: Homo sapiens, NCI-H525
NCI-H23 = assay: cells; conditions: Homo sapiens
HCC 2998 = assay: cells; conditions: Homo sapiens
HCT-116 = assay: cells; conditions: Homo sapiens
LOX IMVI = assay: cells; conditions: Homo sapiens
M14 = assay: cells; conditions: Homo sapiens
OVCAR-8 = assay: cells; conditions: Homo sapiens
cells [7] = conditions: Homo sapiens, 786-0
SN12C = assay: cells; conditions: Homo sapiens
[8] = target: T1, Dihydrofolate reductase (Escherichia coli); assay: Inhibition of Escherichia coli dihydrofolate reductase at 3 uM
[9] = target: Thymidylate synthase (Escherichia coli) (UniProt C3SWJ7); assay: Inhibition of Escherichia coli thymidylate synthase at 23 uM
Thymidylate synthase (Escherichia coli), sequence (C3SWJ7 1-264): as the sequence (C3SWJ7 whole entry) above

[10] = target: T1, Dihydrofolate reductase (Escherichia coli); assay: Inhibition of Escherichia coli dihydrofolate reductase at 28 uM
[11] = target: T4, Bifunctional dihydrofolate reductase-thymidylate synthase (Toxoplasma gondii) (UniProt Q07422); conditions: 23 uM
T4 sequence (whole entry): T2 sequence (Q07422 whole entry)

[12] = target: T1, Dihydrofolate reductase (Escherichia coli); assay: Inhibition of Escherichia coli dihydrofolate reductase at 27 uM
[13] = target: T1, Dihydrofolate reductase (Escherichia coli); assay: Inhibition of Escherichia coli dihydrofolate reductase at […]

Thymidylate synthase (Homo sapiens, UniProt P04818), sequence (P04818 whole entry): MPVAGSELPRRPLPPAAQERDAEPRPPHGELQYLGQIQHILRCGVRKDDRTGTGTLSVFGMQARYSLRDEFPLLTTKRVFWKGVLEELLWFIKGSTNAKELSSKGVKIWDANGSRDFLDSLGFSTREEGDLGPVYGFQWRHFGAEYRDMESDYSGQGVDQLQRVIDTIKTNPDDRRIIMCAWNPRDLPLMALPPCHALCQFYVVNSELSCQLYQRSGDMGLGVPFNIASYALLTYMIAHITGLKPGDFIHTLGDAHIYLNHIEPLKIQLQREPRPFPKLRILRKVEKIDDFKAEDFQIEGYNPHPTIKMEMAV

Row | SMILES | IC50 (Thymidylate synthase [2]) [nM] | IC50 (Thymidylate synthase [3]) [nM] | IC50 [4] [nM] | IC50 (Dihydrofolate reductase) [nM] | IC50 [5] [nM] | other results
1 | CCc1sc2nc(N)[nH]c(=O)c2c1Sc1ccc(F)cc1 | 1300 | 2900 | 2600 | 620 | 25 | inhibition [1]: 15%
2 | CCc1sc2nc(N)[nH]c(=O)c2c1Sc1ccc([N+](=O)[O-])cc1 | 220 | 1700 | 1000 | 260 | 8.7 | –
3 | CCc1sc2nc(N)[nH]c(=O)c2c1Sc1ccc2ccccc2c1 | 2300 | 1400 | 1100 | 2200 | 8.4 | –
4 | CCc1sc2nc(N)[nH]c(=O)c2c1Sc1ccncc1 | – | 2000 | 1700 | 350 | 17 | –
5 | CCc1sc2nc(N)[nH]c(=O)c2c1Sc1ccc(Cl)cc1 | 750 | 2500 | – | 300 | – | –
6 | CCc1sc2nc(N)[nH]c(=O)c2c1Sc1ccc(C(=O)N[C@@H](CCC(=O)O)C(=O)O)cc1 | 54 | 18 | 90 | 19 | 2.1 | GI50 (CCRF-CEM): 853 nM; GI50 (HL-60(TB)): 497 nM; GI50 (MOLT-4): 4780 nM; GI50 (NCI-H460): 959 nM; GI50 (cells [6]): 7800 nM; GI50 (NCI-H23): 9400 nM; GI50 (HCC 2998): 965 nM; GI50 (HCT-116): 284 nM; GI50 (LOX IMVI): 90.9 nM; GI50 (M14): 4320 nM; GI50 (OVCAR-8): 579 nM; GI50 (cells [7]): 817 nM; GI50 (SN12C): 3310 nM
7 | CCc1sc2nc(N)[nH]c(=O)c2c1Sc1cccc(Cl)c1 | 380 | 2300 | 1800 | 300 | 12 | inhibition [8]: 0%
8 | Cc1sc2nc(N)[nH]c(=O)c2c1Sc1ccc(C(=O)N[C@@H](CCC(=O)O)C(=O)O)cc1 | – | – | – | – | – | GI50 (CCRF-CEM): 94500 nM; GI50 (MOLT-4): > 100000 nM; GI50 (NCI-H460): 41200 nM; GI50 (cells [6]): > 100000 nM; GI50 (NCI-H23): > 100000 nM; GI50 (HCC 2998): > 100000 nM; GI50 (HCT-116): > 100000 nM; GI50 (LOX IMVI): 65600 nM; GI50 (M14): > 100000 nM; GI50 (OVCAR-8): > 100000 nM; GI50 (cells [7]): > 100000 nM; GI50 (SN12C): > 100000 nM
9 | CCc1sc2nc(N)[nH]c(=O)c2c1Sc1cc(OC)ccc1OC | 4600 | > 23000 | – | 840 | 14 | inhibition [9]: 11%; inhibition [10]: 0%; inhibition [11]: 29%
10 | CCc1sc2nc(N)[nH]c(=O)c2c1Sc1cc(OC)cc(OC)c1 | 1200 | 1800 | 2300 | 540 | 24 | inhibition [12]: 0%
11 | CCc1sc2nc(N)[nH]c(=O)c2c1Sc1ccccc1 | 5600 | 28000 | 8400 | 2600 | 33 | –
12 | CCc1sc2nc(N)[nH]c(=O)c2c1Sc1cc(Cl)cc(Cl)c1 | 690 | 1200 | 1600 | 280 | 14 | inhibition [13]: 0%
13 | CCc1sc2nc(N)[nH]c(=O)c2c1Sc1ccc(Cl)c(Cl)c1 | 230 | 2300 | 1000 | 290 | 8.1 | –
14 | CCc1sc2nc(N)[nH]c(=O)c2c1Sc1ccccc1Cl | 1100 | 2000 | 2500 | 600 | 27 | –
15 | CCc1sc2nc(N)[nH]c(=O)c2c1Sc1ccc(Br)cc1 | 390 | 2200 | 2200 | 260 | 13 | –
